Laboratory results from PMC12169608, “Peptidomimetic Phenoxymethyl Ketone Warheads as Potent Dual-Mode Inhibitors against SARS-CoV‑2 M^pro and Cathepsin” (Journal of Medicinal Chemistry, 2025).

Target: SARS-CoV-2 main protease (Mpro) (Severe acute respiratory syndrome coronavirus 2, UniProt P0DTD1)
Experiment: cell-based

Compound	EC50 [µM]	M^pro reporter assay pEC50
COc1cccc2[nH]c(C(=O)N[C@@H](Cc3cccc(F)c3)C(=O)N[C@@H](C[C@@H]3CCNC3=O)C(=O)COc3c(F)c(F)c(CO)c(F)c3F)cc12 [compound 1, N-((S)-3-(3-Fluorophenyl)-1-oxo-1-(((S)-3-oxo-1-((S)-2-oxopyrrolidin-3-yl)-4-(2,3,5,6-tetrafluoro-4-(hydroxymethyl)phenoxy)butan-2-yl)amino)propan-2-yl)-4-methoxy-1H-indole-2-carboxamide]	0.105	
COc1cccc2[nH]c(C(=O)N[C@H](Cc3cccc(F)c3)C(=O)N[C@@H](C[C@@H]3CCNC3=O)C(=O)COc3c(F)c(F)c(CO)c(F)c3F)cc12 [compound 2, N-((R)-3-(3-Fluorophenyl)-1-oxo-1-(((S)-3-oxo-1-((S)-2-oxopyrrolidin-3-yl)-4-(2,3,5,6-tetrafluoro-4-(hydroxymethyl)phenoxy)butan-2-yl)amino)propan-2-yl)-4-methoxy-1H-indole-2-carboxamide]	18.6	
CCCCCCCCCCCCCCCC(=O)N[C@@H](Cc1cccc(F)c1)C(=O)N[C@@H](C[C@@H]1CCNC1=O)C(=O)COc1c(F)c(F)c(CO)c(F)c1F [compound 4, N-((S)-3-(3-Fluorophenyl)-1-oxo-1-(((S)-3-oxo-1-((S)-2-oxopyrrolidin-3-yl)-4-(2,3,5,6-tetrafluoro-4-(hydroxymethyl)phenoxy)butan-2-yl)amino)propan-2-yl)palmitamide]	> 50.1	
O=C(N[C@@H](Cc1c[nH]c2ccccc12)C(=O)N[C@@H](C[C@@H]1CCNC1=O)C(=O)COc1c(F)c(F)c(CO)c(F)c1F)c1cc2ccccc2[nH]1 [compound 5, N-((S)-3-(1H-Indol-3-yl)-1-oxo-1-(((S)-3-oxo-1-((S)-2-oxopyrrolidin-3-yl)-4-(2,3,5,6-tetrafluoro-4-(hydroxymethyl)phenoxy)butan-2-yl)amino)propan-2-yl)-1H-indole-2-carboxamide]	2.88	
COc1cccc2[nH]c(C(=O)N[C@@H](Cc3cccc(F)c3)C(=O)N[C@@H](C[C@@H]3CCNC3=O)C(=O)COc3c(F)c(F)c(C(C)O)c(F)c3F)cc12 (stereo partly drawn) [compound 8, N-((2S)-3-(3-Fluorophenyl)-1-oxo-1-(((2S)-3-oxo-1-((S)-2-oxopyrrolidin-3-yl)-4-(2,3,5,6-tetrafluoro-4-(1-hydroxyethyl)phenoxy)butan-2-yl)amino)propan-2-yl)-4-methoxy-1H-indole-2-carboxamide]	0.00871	
COc1cccc2[nH]c(C(=O)N[C@@H](Cc3cccc(F)c3)C(=O)N[C@@H](C[C@@H]3CCNC3=O)C(=O)COc3c(F)c(F)c(C(C)(C)O)c(F)c3F)cc12 [compound 10, N-((S)-3-(3-Fluorophenyl)-1-oxo-1-(((S)-3-oxo-1-((S)-2-oxopyrrolidin-3-yl)-4-(2,3,5,6-tetrafluoro-4-(2-hydroxypropan-2-yl)phenoxy)butan-2-yl)amino)propan-2-yl)-4-methoxy-1H-indole-2-carboxamide]	0.00468	
COc1cccc2[nH]c(C(=O)N[C@@H](Cc3cccc(F)c3)C(=O)N[C@@H](C[C@@H]3CC(=O)NC3=O)C(=O)COc3c(F)c(F)c(C(C)(C)O)c(F)c3F)cc12 [compound 11]	1.23	
COc1cccc2[nH]c(C(=O)N[C@@H](Cc3cccc(F)c3)C(=O)N[C@@H](C[C@@H]3CCNC3=O)C(=O)COc3c(F)c(F)c(F)c(F)c3F)cc12 [compound 16, reference compound]	< 0.00302	
N-((S)-3-(3-Fluorophenyl)-1-oxo-1-(((S)-2-oxo-5-(5-oxo-1,5-dihydro-4H-1,2,4-triazol-4-yl)-1-(2,3,5,6-tetrafluoro-4-(2-hydroxypropan-2-yl)phenoxy)pentan-3-yl)amino)propan-2-yl)-4-methoxy-1H-indole-2-carboxamide [compound 12]		4.66
